Results as given in ChEMBL document CHEMBL5579834 (Eur J Med Chem, 2024).

Key:
[1] = Cytotoxicity against HEK293T cells assessed as reduction in cell viability measured after 48 hrs by MTT assay; type: toxicity, cell-based, HEK-293T; details: human
[2] = Half-life in rat whole blood at 500 ng/ml by LC-MS/MS analysis; type: ADME, tissue-based
[3] = Drug uptake in human skin fibroblast lysosomes assessed as fold change in corrected total cell fluorescence at 50 uM measured after 2 hrs by LysoTracker Red DND-99 dye based laser scanning confocal microscopy relative to control; type: ADME, subcellular, Lysosome

Molecule `CN1CCN(CCCC(=O)O[C@H]2C(C)(C)[C@H]3CC[C@]2(C)C3)CC1` has a CC50 at 48 h [1] greater than 775 µM.
`CC1(C)[C@H]2CC[C@](C)(C2)[C@H]1OC(=O)CN1CCOCC1` showed a CC50 at 48 h [1] of 291 µM.
For `CN1CCN(CC(=O)O[C@H]2C(C)(C)[C@H]3CC[C@]2(C)C3)CC1`, the CC50 at 48 h [1] was 645 µM.
For `CCN1CCN(CCC(=O)O[C@H]2C(C)(C)[C@H]3CC[C@]2(C)C3)CC1`, the CC50 at 48 h [1] was 356 µM.
With `CC1(C)[C@H]2CC[C@](C)(C2)[C@H]1OC(=O)CCCN1CCCCC1` the CC50 at 48 h [1] was 458 µM.
In the case of `CC1(C)[C@@H]2CC[C@@]1(C)[C@@H](OC(=O)CCN1CCCCC1)C2`, the half-life at 500 ng/ml [2] is reported as 20 min.
With `CN1CCN(CCC(=O)O[C@H]2C(C)(C)[C@H]3CC[C@]2(C)C3)CC1` the CC50 at 48 h [1] was 454 µM and the “fold change (FC)” value [3] was 0.33.
For `C[C@@H]1[C@H]2C[C@@H](C[C@H]1OC(=O)CCN1CCN(c3ccccc3)CC1)C2(C)C`, the CC50 at 48 h [1] was 128 µM.
Molecule `C[C@@H]1[C@H]2C[C@@H](C[C@H]1OC(=O)CCCN1CCN(c3ccccc3)CC1)C2(C)C` has a CC50 at 48 h [1] of 67 µM.
With `C[C@@H]1[C@H]2C[C@@H](C[C@H]1OC(=O)CCN1CCN(C)CC1)C2(C)C` the CC50 at 48 h [1] was 318 µM.
With `CCN1CCN(CCCC(=O)O[C@H]2C(C)(C)[C@H]3CC[C@]2(C)C3)CC1` the CC50 at 48 h [1] was 404 µM.
In the case of `C[C@@H]1[C@H]2C[C@@H](C[C@H]1OC(=O)CN1CCN(C)CC1)C2(C)C`, the CC50 at 48 h [1] is reported as 628 µM.
`C[C@@H]1[C@H]2C[C@@H](C[C@H]1OC(=O)CN1CCN(c3ccccc3)CC1)C2(C)C` showed a CC50 at 48 h [1] of 59 µM.
`CC1CCN(CC(=O)O[C@H]2C(C)(C)[C@H]3CC[C@]2(C)C3)CC1` showed a CC50 at 48 h [1] of 241 µM.
For `CC1(C)[C@H]2CC[C@](C)(C2)[C@H]1OC(=O)CCCN1CCN(c2ccccc2)CC1`, the CC50 at 48 h [1] was 11 µM.
Molecule `CC1(C)[C@H]2CC[C@](C)(C2)[C@H]1OC(=O)CCN1CCN(c2ccccc2)CC1` has a CC50 at 48 h [1] of 21 µM.
With `CCN1CCN(CC(=O)O[C@H]2C(C)(C)[C@H]3CC[C@]2(C)C3)CC1` the CC50 at 48 h [1] was 907 µM.
For `CC1(C)[C@H]2CC[C@](C)(C2)[C@H]1OC(=O)CN1CCCCC1`, the CC50 at 48 h [1] was 229 µM and the “fold change (FC)” value [3] was 0.6.
With `C[C@@H]1[C@H]2C[C@@H](C[C@H]1OC(=O)CCN1CCCCC1)C2(C)C` the CC50 at 48 h [1] was 334 µM and the “fold change (FC)” value [3] was 0.37.
Molecule `CC1CCN(CCC(=O)O[C@H]2C(C)(C)[C@H]3CC[C@]2(C)C3)CC1` has a CC50 at 48 h [1] of 188 µM.
In the case of `CC1(C)[C@H]2CC[C@](C)(C2)[C@H]1OC(=O)CCCN1CCOCC1`, the CC50 at 48 h [1] is reported as 261 µM and the “fold change (FC)” value [3] is reported as 0.56.
For `CC1(C)[C@H]2CC[C@](C)(C2)[C@H]1OC(=O)CCN1CCCCC1`, the CC50 at 48 h [1] was 351 µM and the “fold change (FC)” value [3] was 0.3.
In the case of `CC1(C)[C@H]2CC[C@](C)(C2)[C@H]1OC(=O)CN1CCN(c2ccccc2)CC1`, the CC50 at 48 h [1] is reported as 101 µM.
Molecule `C[C@@H]1[C@H]2C[C@@H](C[C@H]1OC(=O)CCCN1CCN(C)CC1)C2(C)C` has a CC50 at 48 h [1] of 164 µM.
With `C[C@@H]1[C@H]2C[C@@H](C[C@H]1OC(=O)CN1CCOCC1)C2(C)C` the CC50 at 48 h [1] was 199 µM and the “fold change (FC)” value [3] was 0.56.
Molecule `C[C@@H]1[C@H]2C[C@@H](C[C@H]1OC(=O)CCCN1CCCCC1)C2(C)C` has a CC50 at 48 h [1] of 123 µM.
For `C[C@@H]1[C@H]2C[C@@H](C[C@H]1OC(=O)CN1CCCCC1)C2(C)C`, the CC50 at 48 h [1] was 314 µM and the “fold change (FC)” value [3] was 0.46.
With `C[C@@H]1[C@H]2C[C@@H](C[C@H]1OC(=O)CCN1CCOCC1)C2(C)C` the CC50 at 48 h [1] was 281 µM and the “fold change (FC)” value [3] was 0.57.
With `C[C@@H]1[C@H]2C[C@@H](C[C@H]1OC(=O)CCCN1CCOCC1)C2(C)C` the CC50 at 48 h [1] was 116 µM.
In the case of `CC1(C)[C@H]2CC[C@](C)(C2)[C@H]1OC(=O)CCN1CCOCC1`, the CC50 at 48 h [1] is reported as 318 µM.
`CC1CCN(CCCC(=O)O[C@H]2C(C)(C)[C@H]3CC[C@]2(C)C3)CC1` gave a CC50 at 48 h [1] of 130 µM.
`CN(C)CCOc1ccc(/C(=C(/CCCl)c2ccccc2)c2ccccc2)cc1` [TOREMIFENE] gave a CC50 at 48 h [1] of 17 µM.
